Legend:
[1] = system: arterioles from adipose biopsies of patients with hypertension; assay: Human ex vivo vasoreactivity, phenylephrine cumulative dose response; conditions: cumulative dose response without HbαX
[2] = system: mice with AngII-induced hypertension; assay: Radiotelemetry blood pressure, AngII-induced hypertensive mice; format: in vivo; conditions: AngII 1000 ng/kg/min by osmotic mini-pump; from a baseline of 110 mmHg
[3] = system: hemoglobin in red blood cells; assay: Red blood cell oxygen p50; conditions: fresh human blood; 5 minutes incubation; HbαX 30 μmol/L; n=3

Molecule: CNC[C@H](O)c1cccc(O)c1 [phenylephrine]
- responsiveness of human arterioles to PE [1]: responsive

Molecule: Angiotensin II [AngII]
- systolic blood pressure on AngII [2]: ~ 170 mmHg

Molecule: FPYFSTKLTT [control peptide]
- oxygen p50 of hemoglobin in RBCs [3]: did not significantly change the oxygen p50

From PMC5159279 (Hypertension (Dallas, Tex. : 1979), 2016)
